Here are results for 21 molecules from PubChem BioAssay (NCI).

Test systems include T-47D breast; MDA-N; MCF7 breast; MDA-MB-231 breast.
Experiment in all cases: inhibition of tumour cell growth, NCI panel, 48 h

Molecules are shown by their SMILES. Converted amounts (≈) assume the structure as drawn.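 Grown in 96-well plates, cells were treated for 48 hours with each compound at five concentrations. Insufficient inhibition: endpoint recorded as highest concentration tested. GI50 is the concentration that inhibits growth by half. TGI marks complete inhibition of growth.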

Regarding `CCOC(=O)CC1(O)C=CC(=O)C=C1`, the GI50 with T-47D breast is 0.667 µg/mL; in the test on MDA-N, 2.83 µg/mL (≈ 14.4 µM); in the test with MCF7 breast, 0.824 µg/mL; in the test with MDA-MB-231 breast, 0.443 µg/mL. In addition, the TGI worked out at 2.31 µg/mL in the test on T-47D breast, 7.25 µg/mL in the test with MDA-N, 2.59 µg/mL in the test on MCF7 breast and 1.31 µg/mL with MDA-MB-231 breast.
With `Brc1ccc([I+]c2ccc(Br)cc2)cc1`, the GI50 was 1.78 µM in the test with T-47D breast, 0.825 µM in the test on MCF7 breast and 2.34 µM with MDA-MB-231 breast. Further, the values for the TGI in the test with T-47D breast, in the test on MCF7 breast and in the test on MDA-MB-231 breast were 11 µM, 10.2 µM and 17 µM, respectively.
Take `CCCCCCCCCCCCCCCc1cc(O)ccc1N`: the GI50 in the test with T-47D breast is 0.132 µM; in the test on MCF7 breast, 23 µM; with MDA-MB-231 breast, more than 31.1 µM. Also, the figures for the TGI with T-47D breast, in the test on MCF7 breast and in the test with MDA-MB-231 breast were 1.76 µM, more than 100 µM and more than 100 µM, respectively.
On to `O=C1/C(=C/c2ccccc2Cl)N=C(c2ccccc2)N1Cc1ccco1`, for which the GI50 was 53.2 µM in the test with T-47D breast, 18.3 µM in the test on MCF7 breast and 19.7 µM with MDA-MB-231 breast. Further, the TGI in the test with T-47D breast, with MCF7 breast and with MDA-MB-231 breast was more than 100 µM throughout.
`O=C1c2ccccc2C(=O)N1c1ccc(S(=O)(=O)Nc2ncccn2)cc1`: the GI50 in the test on MCF7 breast and in the test with MDA-MB-231 breast was more than 100 µM in each case. Moreover, the TGI in the test with MCF7 breast and in the test with MDA-MB-231 breast was more than 100 µM each time.
`CC(C)(C)c1ccc([I+]c2ccc(C(C)(C)C)cc2)cc1`: the results for the GI50 in the test with T-47D breast, with MCF7 breast and in the test with MDA-MB-231 breast were 0.745 µM, 1.35 µM and 1.35 µM, respectively. The figures for the TGI with T-47D breast, in the test with MCF7 breast and with MDA-MB-231 breast were 5.67 µM, 9.17 µM and 2.83 µM, respectively.
With `COC(=O)c1ccccc1NC(=O)/C(=N\NC(C)(C)C)C(C#N)c1nc(-c2ccc([N+](=O)[O-])cc2)cs1` (stereo unspecified), the TGI with T-47D breast, in the test with MDA-N, in the test on MCF7 breast and with MDA-MB-231 breast was more than 100 µM each time.
In the case of `CC1(C)N=C(N)N=C(N)N1c1ccc(F)c(C(F)(F)F)c1`, the GI50 in the test with T-47D breast was more than 90.7 µM; in the test on MCF7 breast, 0.998 µM; with MDA-MB-231 breast, more than 100 µM. In addition, the TGI in the test on T-47D breast, in the test on MCF7 breast and in the test with MDA-MB-231 breast was more than 100 µM in each case.
Turning to `Nc1ccc2c(c1)C(=O)c1c(F)cccc1-2`, the TGI was more than 100 µM in the test with T-47D breast, more than 100 µM in the test with MDA-N, 41.7 µM in the test with MCF7 breast and more than 100 µM in the test on MDA-MB-231 breast.
As for `O=C(Nc1ccc(Br)cc1)Nc1n[nH]c2ccccc12`, the GI50 in the test on T-47D breast is more than 100 µM; in the test on MCF7 breast, 42.1 µM; with MDA-MB-231 breast it was more than 50.3 µM. Moreover, the TGI in the test on T-47D breast, in the test with MCF7 breast and in the test on MDA-MB-231 breast was more than 100 µM each time.
On to `CC(=O)/C=C/C1=C(c2cc3ccccc3s2)c2ccccc2CC1`, for which the GI50 with T-47D breast is 8.58 µM; in the test with MCF7 breast, 5.27 µM; in the test with MDA-MB-231 breast, 26.2 µM. The TGI is more than 100 µM in the test on T-47D breast, more than 100 µM with MCF7 breast and 88.2 µM with MDA-MB-231 breast.
For the molecule `O=C1OC(c2ccc(O)c(-c3ccccc3)c2)(c2ccc(O)c(-c3ccccc3)c2)c2c(Cl)c(Cl)c(Cl)c(Cl)c21`, the TGI in the test with T-47D breast, in the test on MDA-N, in the test on MCF7 breast and in the test with MDA-MB-231 breast was more than 100 µM in each case.
Regarding `COc1cccc(/C=N\Nc2ccc([N+](=O)[O-])cn2)c1O`, the GI50 with T-47D breast is 3.83 µM; in the test on MCF7 breast, 3.18 µM; in the test with MDA-MB-231 breast, 3.95 µM. Besides, the TGI with T-47D breast was 89.1 µM; with MCF7 breast, 71.1 µM; in the test with MDA-MB-231 breast it was 96.2 µM.
Turning to `COCCOC(=O)C1=C(C)NC2=C(C(=O)CC(c3ccccc3OC)C2)C1c1cccc(O)c1` (stereo unspecified), the values for the GI50 with T-47D breast, in the test with MCF7 breast and in the test with MDA-MB-231 breast were 5.99 µM, 4.31 µM and 13 µM, respectively. The TGI with T-47D breast is 54.3 µM; with MCF7 breast, 72.4 µM; in the test on MDA-MB-231 breast, more than 72.8 µM.
As to `O=C1Nc2ccccc2C1Cc1ccccc1` (stereo unspecified), the TGI in the test with T-47D breast, with MDA-N and in the test on MCF7 breast was more than 100 µM throughout.
With `COC(CCP(=O)(c1ccccc1)c1ccccc1)(C(=O)c1ccccc1)c1ccccc1` (stereo unspecified), the GI50 is 2.06 µM in the test on T-47D breast, 2.39 µM in the test on MCF7 breast and 2.69 µM in the test on MDA-MB-231 breast. The results for the TGI in the test with T-47D breast, with MCF7 breast and in the test with MDA-MB-231 breast were 12.3 µM, 11.3 µM and 17 µM, respectively.
Turning to `C(=C1c2ccccc2-c2ccccc21)c1ccccn1`, the GI50 is 5.03 µM with T-47D breast, 2.71 µM with MCF7 breast and 12.3 µM with MDA-MB-231 breast. Besides, the TGI in the test with T-47D breast was 50.9 µM; in the test on MCF7 breast, 21.3 µM; in the test on MDA-MB-231 breast, 39.8 µM.
With `Cn1c(=O)cc2c3c(c(NCCCO)ccc31)C(=O)c1ccccc1-2`, the results for the GI50 in the test with T-47D breast, in the test on MCF7 breast and with MDA-MB-231 breast were 13 µM, 3.46 µM and 4.77 µM, respectively. The TGI in the test on T-47D breast, in the test on MCF7 breast and in the test on MDA-MB-231 breast was more than 100 µM each time.
For the molecule `COc1ccc(-c2n[nH]nc2-c2csc3ccccc23)cc1OC`, the GI50 in the test on T-47D breast is 2.83 µM; in the test on MCF7 breast it was 1.45 µM; in the test on MDA-MB-231 breast it was 3.21 µM. Moreover, the TGI in the test with T-47D breast came out at 32.6 µM; in the test with MCF7 breast, 15.1 µM; in the test with MDA-MB-231 breast it was 35.5 µM.
As to `CN1C(=O)CNC(=O)[C@H](NC(=O)c2nc3ccccc3cc2O)CSSC[C@H]1C(=O)NCCc1nc2ccccc2cc1O`, the GI50 is 8.09 µM in the test on T-47D breast, 6.23 µM in the test with MCF7 breast and 5.42 µM with MDA-MB-231 breast. Moreover, the results for the TGI in the test on T-47D breast, in the test on MCF7 breast and in the test with MDA-MB-231 breast were 29.7 µM, 27.4 µM and 27.7 µM, respectively.
In the case of `COc1cnc2c(c1)C(=O)c1c-2n(CCCn2ccnc2)c(=O)c2cc(Cl)ccc12`, the GI50 was 0.0263 µM in the test with T-47D breast, less than 0.01 µM with MCF7 breast and 1.27 µM in the test on MDA-MB-231 breast. Also, the TGI with T-47D breast is 0.309 µM; in the test with MDA-MB-231 breast, more than 100 µM.
